Tests used:
[1] = molecular target: T1, KRAS (G12C) and SOS1 (Homo sapiens, UniProt P01116, C118S/C51S/C80L/G12C); assay: KRAS::SOS1 AlphaScreen binding assay, KRAS G12C
T1 construct: KRAS (G12C) 1-169, N-terminal 6His-tag for purification; 6His (N, cleaved yes)
Procedure: (§1) Low IC50 values in this assay setting are indicative of strong inhibition of protein-protein interaction between SOS1 and KRAS:
(§2) These assays measure the inhibitory effect of compounds on KRAS mutant protein-protein interactions using the Alpha Screen technology by Perkin Elmer.
(§3) For the chosen highest assay concentration of 100 μM, 150 nL of compound solution are transferred from a 10 mM DMSO compound stock solution. A series of eleven fivefold dilutions per compound are transferred to the assay plate, compound dilutions are tested in duplicates. DMSO are added as backfill to a total volume of 150 nL.
(§4) The assays run on a fully automated robotic system in a darkened room below 100 Lux. To 150 nl of compound dilution 10 μl of a mix including KRAS mutant protein, SOS1 (final assay concentrations see above) and GDP nucleotide (Sigma G7127; final assay concentration 10 μM) in assay buffer (1×PBS, 0.1% BSA, 0.05% Tween 20) are added into columns 1-24. After 30 minutes incubation time 5 μl of Alpha Screen bead mix in assay buffer are added into columns 1-23.
(§5) Plates are kept at room temperature in a darkened incubator. After an additional 60 minutes incubation time the signal is measured in a PerkinElmer Envision HTS Multilabel Reader using the AlphaScreen specs from PerkinElmer.
(§6) IC50 values are calculated and analyzed with Boehringer Ingelheim's MEGALAB IC50 application using a 4 parametric logistic model.

[2] = molecular target: KRAS G12D Ba/F3 cells (Homo sapiens, UniProt P01116, G12D, cells depend on it); assay: Ba/F3 proliferation assay, KRAS G12D; assay type: cell-based; settings: 72 h, AlamarBlue, read-out: KRAS G12D Ba/F3 IC50
Chain of KRAS G12D Ba/F3 cells (P01116 whole entry G12D, canonical isoform): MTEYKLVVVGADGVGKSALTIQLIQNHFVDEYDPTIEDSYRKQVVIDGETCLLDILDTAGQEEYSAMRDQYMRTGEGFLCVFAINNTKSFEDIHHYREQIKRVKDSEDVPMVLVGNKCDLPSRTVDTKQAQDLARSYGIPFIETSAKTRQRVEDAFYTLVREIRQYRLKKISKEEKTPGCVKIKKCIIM
Procedure: (§7) To generate KRASG12-dependent Ba/F3 models, Ba/F3 cells are transduced with retroviruses containing vectors that harbor KRASG12 isoforms. Platinum-E cells (Cell Biolabs) are used for retrovirus packaging. Retrovirus is added to Ba/F3 cells. To ensure infection, 4 μg/mL polybrene is added and cells are spinfected. […] Cells with an infection efficiency of 10% to 20% are further cultivated and puromycin selection with 1 μg/mL is initiated. As a control, parental Ba/F3 cells are used to show selection status. Selection is considered successful when parental Ba/F3 cells cultures died. To evaluate the transforming potential of KRASG12 mutations, the growth medium is no longer supplemented with IL-3. Ba/F3 cells harboring the empty vector are used as a control. Approximately ten days before conducting the experiments, puromycin is left out.
(§8) All treatments are performed in technical duplicates. […] AlamarBlue™ (ThermoFisher), a viability stain, is added and fluorescence measured in the PerkinElmer Envision HTS Multilabel Reader. The raw data are imported into and analyzed with the Boehringer Ingelheim proprietary software MegaLab (curve fitting based on the program PRISM, GraphPad Inc.).

[3] = molecular target: KRAS G12C Ba/F3 cells (Homo sapiens, UniProt P01116, G12C, cells depend on it); assay: Ba/F3 proliferation assay, KRAS G12C; assay type: cell-based; settings: 72 h, AlamarBlue, read-out: KRAS G12C Ba/F3 IC50
Chain of KRAS G12C Ba/F3 cells (P01116 whole entry G12C): as the sequence (P01116 whole entry G12D, canonical isoform) above, with D12C counted along it
Procedure: as §7, §8

[4] = molecular target: T2, CYP3A4 (Homo sapiens, UniProt P08684); assay: Mechanism based inhibition of CYP3A4 assay (MBI 3A4); assay type: in vitro ADME; settings: 25 uM, hydroxy-midazolam formation after 30 min preincubation relative to 0 min
T2 construct: assayed in human liver microsomes (0.02 mg/mL) with midazolam (15 μM) as a substrate; from tissue; host or cells: human liver microsomes
T2 sequence (P08684 whole entry): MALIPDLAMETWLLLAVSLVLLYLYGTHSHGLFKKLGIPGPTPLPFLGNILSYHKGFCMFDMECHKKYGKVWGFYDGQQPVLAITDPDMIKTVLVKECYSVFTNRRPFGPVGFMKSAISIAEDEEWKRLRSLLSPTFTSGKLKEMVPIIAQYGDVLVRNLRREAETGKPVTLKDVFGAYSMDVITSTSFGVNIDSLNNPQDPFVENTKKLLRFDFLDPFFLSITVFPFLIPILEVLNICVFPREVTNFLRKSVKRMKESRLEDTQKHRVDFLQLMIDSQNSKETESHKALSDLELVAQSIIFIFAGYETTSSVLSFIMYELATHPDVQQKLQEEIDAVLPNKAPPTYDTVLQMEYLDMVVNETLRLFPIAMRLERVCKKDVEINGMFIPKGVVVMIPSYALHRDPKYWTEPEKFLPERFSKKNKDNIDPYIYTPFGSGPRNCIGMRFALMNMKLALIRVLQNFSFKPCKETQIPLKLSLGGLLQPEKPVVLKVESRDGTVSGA
Procedure: The time dependent inhibition towards CYP3A4 is assayed in human liver microsomes (0.02 mg/mL) with midazolam (15 μM) as a substrate. The test compounds and water control (wells w/o test compound) are preincubated in presence of NADPH (1 mM) with human liver microsomes (0.2 mg/mL) at a concentration of 25 uM for 0 min and 30 min. After preincubation, the incubate is diluted 1:10 and the substrate midazolam is added for the main incubation (15 min). The main incubation is quenched with acetonitrile and the formation of hydroxy-midazolam is quantified via LC/MS-MS. The formation of hydroxy-midazolam from the 30 min preincubation relative to the formation from the 0 min preincubation is used as a readout. Values of less than 100% mean that the substrate midazolam is metabolized to a lower extent upon 30 min preincubation compared to 0 min preincubation. In general low effects upon 30 min preincubation are desired (corresponding to values close to 100%/not different to the values determined with water control).

[5] = Caco-2 assay; assay type: in vitro ADME; settings: human; for Papp A→B at 90 min, 10 μM: Caco-2, pH 7.4, apical to basolateral, read-out: Caco PappAB; for efflux ratio at 90 min, 10 μM: Caco-2, pH 7.4, efflux ratio PappBA/PappAB, read-out: Caco ER
Procedure: The assay provides information on the potential of a compound to pass the cell membrane, on the extent of oral absorption as well as on whether the compound is actively transported by uptake and/or efflux transporters. Permeability measurements across polarized, confluent Caco-2 cell monolayers grown on permeable filter supports (Corning, catalog #3391) are used. […] The receiver and donor compartments contain 0.25% bovine serum albumine (BSA) in assay buffer. […] After a pre-incubation of 25-30 min at 37° C., at predefined time points (0, 30, 60 and 90 min), samples were taken from the receiver and donor compartment, respectively. Concentrations of test compounds in samples were measured by HPLC/MS/MS, samples from the donor compartment were diluted 1:50 (v:v) with assay buffer, samples from receiver compartment were measured without dilution.
Apparent permeabilities in a-b (PappAB) and b-a (PappBA) directions are calculated according to the formula:
[formula] • Vrec [mL]: buffer volume in receiver compartment • Cdon [μmol/mL]: concentration of test compound in donor compartment at t=0 • ΔCrec: difference between concentrations of test compound in receiver compartment at start and end of incubation time • Δt: Incubation time • Vrec·ΔCrec/Δt [μmol/min]: Amount of compound transferred to receiver compartment per time • A [cm^2]: filter surface
Caco-2 efflux ratios (ER) are calculated as the ratio of PappBA/PappAB.

[6] = molecular target: T3, KRAS (G12V) and SOS1 (Homo sapiens, UniProt P01116, C118S/G12V); assay: KRAS::SOS1 AlphaScreen binding assay, KRAS G12V
T3 construct: KRAS (G12V) 1-169, N-terminal 6His-tag for purification; 6His (N, cleaved yes); TEV cleavage site
T3 sequence (P01116 1-169 isoform P01116-2 G12V/C118S): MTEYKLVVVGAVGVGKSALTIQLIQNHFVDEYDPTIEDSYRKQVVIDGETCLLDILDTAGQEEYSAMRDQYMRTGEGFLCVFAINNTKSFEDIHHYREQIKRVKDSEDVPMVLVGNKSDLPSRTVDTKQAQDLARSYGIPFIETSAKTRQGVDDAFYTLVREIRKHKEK
Procedure: as §1, §2, §3, §4, §5, §6

T1 sequence (P01116 1-169 isoform P01116-2 G12C/C51S/C80L/C118S): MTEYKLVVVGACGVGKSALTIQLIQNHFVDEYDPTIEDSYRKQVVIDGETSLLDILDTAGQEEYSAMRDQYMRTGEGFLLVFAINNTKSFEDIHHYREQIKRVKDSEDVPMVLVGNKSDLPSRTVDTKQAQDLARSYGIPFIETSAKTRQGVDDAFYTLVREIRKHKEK

C[C@H]1CNCCN1c1nccc(-c2noc([C@@]3(C)CCCc4sc(N)c(C#N)c43)n2)n1 [Example V-4] showed an IC50 [1] of 23 nM, a GI50 [2] of 823 nM and a GI50 [3] of 831 nM. The “MBI 3A4” value [4] was 75%, the Papp A→B at 90 min, 10 μM [5] was 5 ×10⁻⁶ cm/s and the efflux ratio at 90 min, 10 μM [5] was 9.8.
Compound C[C@H]1CNCCCN1c1nccc(-c2noc([C@@]3(C)CCCc4sc(N)c(C#N)c43)n2)n1 [Example V-6] has an IC50 [1] of 15 nM, a GI50 [2] of 801 nM and a GI50 [3] of 811 nM. For the same compound, the Papp A→B at 90 min, 10 μM [5] was 1.2 ×10⁻⁶ cm/s and the efflux ratio at 90 min, 10 μM [5] was 19.
For C[C@H]1CN(C)CCN1c1nccc(-c2cc([C@@]3(C)CCCc4sc(N)c(C#N)c43)on2)n1 [Example V-27], the IC50 [1] was 24 nM, the IC50 [6] was 18 nM and the GI50 [2] was 525 nM. The GI50 [3] was 1430 nM, the “MBI 3A4” value [4] was 71% and the Papp A→B at 90 min, 10 μM [5] was 14 ×10⁻⁶ cm/s. It also gave an efflux ratio at 90 min, 10 μM [5] of 0.5.
With CC(C)N1CCCN(c2nccc(-c3noc([C@@]4(C)CCCc5sc(N)c(C#N)c54)n3)n2)[C@@H](C)C1 [Example V-9] the IC50 [1] was 5 nM, the GI50 [2] was 51 nM and the GI50 [3] was 64 nM. For the same compound, the “MBI 3A4” value [4] was 49%, the Papp A→B at 90 min, 10 μM [5] was 27 ×10⁻⁶ cm/s and the efflux ratio at 90 min, 10 μM [5] was 0.9.
In the case of C[C@H]1CN(C)CCCN1c1nccc(-c2noc([C@@]3(C)CCCc4sc(N)c(C#N)c43)n2)n1 [Example V-5], the IC50 [1] is reported as 8 nM, the GI50 [2] is reported as 293 nM and the GI50 [3] is reported as 493 nM. The “MBI 3A4” value [4] was 55%, the Papp A→B at 90 min, 10 μM [5] was 21.4 ×10⁻⁶ cm/s and the efflux ratio at 90 min, 10 μM [5] was 1.7.
With C[C@H](Oc1ccnc(-c2noc([C@@]3(C)CCCc4sc(N)c(C#N)c43)n2)n1)[C@@H]1CCCN1C [Example V-11] the Papp A→B at 90 min, 10 μM [5] was 13 ×10⁻⁶ cm/s.
C[C@H]1CN(C)CCN1c1nccc(-c2noc([C@@]3(C)CCCc4sc(N)c(C#N)c43)n2)n1 [Example V-7] showed an IC50 [1] of 22 nM, a GI50 [2] of 1090 nM and a GI50 [3] of 1240 nM. For the same compound, the “MBI 3A4” value [4] was 57%, the Papp A→B at 90 min, 10 μM [5] was 32.2 ×10⁻⁶ cm/s and the efflux ratio at 90 min, 10 μM [5] was 0.7.
C[C@H](Oc1nccc(-c2noc([C@@]3(C)CCCc4sc(N)c(C#N)c43)n2)n1)[C@@H]1CCCN1C [Example V-10] showed an IC50 [1] of 7 nM, a GI50 [2] of 214 nM and a GI50 [3] of 291 nM. For the same compound, the “MBI 3A4” value [4] was 65%, the Papp A→B at 90 min, 10 μM [5] was 11.3 ×10⁻⁶ cm/s and the efflux ratio at 90 min, 10 μM [5] was 3.2.
Work on C[C@H](Oc1cccc(-c2noc([C@@]3(C)CCCc4sc(N)c(C#N)c43)n2)n1)[C@@H]1CCCN1C [Example V-8] yielded an IC50 [1] of 9 nM, an IC50 [6] of 9 nM and a GI50 [2] of 390 nM. It also gave a GI50 [3] of 481 nM, a Papp A→B at 90 min, 10 μM [5] of 20.9 ×10⁻⁶ cm/s and an efflux ratio at 90 min, 10 μM [5] of 1.3.
Compound COCCCN1CCCN(c2nccc(-c3noc([C@@]4(C)CCCc5sc(N)c(C#N)c54)n3)n2)[C@@H](C)C1 [Example V-2] has an IC50 [1] of 6 nM, an IC50 [6] of 6 nM and a GI50 [2] of 256 nM. For the same compound, the GI50 [3] was 371 nM, the Papp A→B at 90 min, 10 μM [5] was 26.4 ×10⁻⁶ cm/s and the efflux ratio at 90 min, 10 μM [5] was 1.5.
C[C@H]1CN(C)CCN1c1cccc(-c2noc([C@@]3(C)CCCc4sc(N)c(C#N)c43)n2)n1 [Example V-1] gave an IC50 [1] of 31 nM, an IC50 [6] of 52 nM and a GI50 [2] of 961 nM. The GI50 [3] was 1270 nM, the “MBI 3A4” value [4] was 65% and the Papp A→B at 90 min, 10 μM [5] was 25.6 ×10⁻⁶ cm/s. The efflux ratio at 90 min, 10 μM [5] was 0.7.

Source: patent publication US20250313553A1, “ANNULATED 2-AMINO-3-CYANO THIOPHENES AND DERIVATIVES FOR THE TREATMENT OF CANCER” (Boehringer Ingelheim Int'l GmbH Corp., priority 2021, published 2025)
